Patent US9408848B2, “Fluorescent CDK inhibitors for treatment of cancer” (Georgetown University, priority 2008, dated 2016)

What was measured:
[1] = test system: T1, CDK1/cyclinA (Homo sapiens); experiment: Kinase assay ([γ-33P]-ATP, histone H1); format: biochemical; conditions: read-out: % inhibition of kinase activity, CDK1/cyclinA
T1 construct: purchased Millipore, Dundee, UK (screening service)
Method: (§1) The final reaction was carried out in a 25 μL solution.
(§2) Briefly assays were performed with a Biomek 2000 Laboratory Automation Workstation in a 96-well format (Beckman instruments, Palo Alto, Calif., U.S.A) for 40 min at ambient temperature in 25 μL incubations using [γ-^33P]-ATP. In a final reaction volume of 25 μL corresponding CDK/cyclin (h) (5-10 mU) was incubated with 8 mM MOPS pH 7.0, 0.2 mM EDTA, 0.1 mg/mL histone H1, 10 mM MgAcetate and [γ-^33P-ATP](specific activity approx. 500 cpm/pmol, concentration as required). The reaction was initiated by the addition of the MgATP mix. After incubation for 40 min at room temperature, the reaction was stopped by the addition of 5 μL of a 3% phosphoric acid solution.

[2] = molecular target: T2, CDK1/cyclinB (Homo sapiens, UniProt P06493); experiment: Kinase assay ([γ-33P]-ATP, histone H1); format: biochemical; conditions: compound 0.1 μM
T2 construct: purchased Millipore, Dundee, UK (screening service)
Method: as §1, §2

[3] = molecular target: T3, CDK2/cyclinE (Homo sapiens, UniProt P24941); experiment: Kinase assay ([γ-33P]-ATP, histone H1); format: biochemical; conditions: read-out: % inhibition of kinase activity, CDK2/cyclinE
T3 construct: purchased Millipore, Dundee, UK (screening service)
Method: as §1, §2

[4] = molecular target: T4, CDK3/cyclinE (Homo sapiens, UniProt Q00526); experiment: Kinase assay ([γ-33P]-ATP, histone H1); format: biochemical; conditions: read-out: % inhibition of kinase activity, CDK3/cyclinE
T4 construct: purchased Millipore, Dundee, UK (screening service)
Method: as §1, §2

[5] = molecular target: T5, CDK7/cyclinH/MATI (Homo sapiens, UniProt P50613); experiment: Kinase assay ([γ-33P]-ATP, histone H1); format: biochemical; conditions: read-out: % inhibition of kinase activity, CDK7/cyclinH/MATI
T5 construct: purchased Millipore, Dundee, UK (screening service)
Method: . The final reaction was carried out in a 25 μL solution. The respective kinases (at […] were incubated with 8 mM MOPS (pH 7.0), 0.2 mM EDTA, 0.1 mg/ml histone H1, 10 mM MgAcetate and [γ-33P-ATP] (specific activity approximately 500 cpm/pmol, concentration as required). The reaction was then initiated by the addition of the MgATP mix. The reaction was stopped after 40 min of incubation by adding 5 μL of a 3% phosphoric acid solution. 10 μL of the reaction was spotted onto a P30 filter mat and washed 3 times for 5 min in 75 mM phosphoric acid and one in methanol prior to drying and counted radioactivity by scintillation counting. […]. Table 1 summarizes the cytotoxic effects of VMY compounds and its controls on breast cancer cell line.
as §2, with “Kinase selectivity of compounds VMY-1-101 and VMY-1-103 were screened at Millipore, Dundee, UK. Briefly” for “Briefly”, “solution. From the reaction, 10 μL was spotted onto a P30 filtermat and washed three times for 5 minutes in 75 mM phosphoric acid and once in methanol prior to dying and scintillation counting.” for “solution.”

[6] = test system: MCF-7; experiment: Cell viability assay (WST-1); format: cell-based, human; conditions: Homo sapiens, MCF7, 48 h, read-out: IC50 (concentration yielding 50% growth inhibition)
Method: (§3) (10%), 2 mM L-glutamine, and 50 μg/mL each of antibiotics, namely penicillin, streptomycin, and neomycin at 37° C. in a humidified incubator containing 5% CO2
(§4) Briefly human breast cancer cells were seeded into a 96-well plate at 3000 cells per well in DMEM containing 10% FBS. Following 24 hours attachment period, compounds were dissolved in DMSO and serially diluted in tissue culture media and added to the cells in triplicate, and incubated for 48 h at 37° C. Control cells were treated with equal amount of DMSO. After 48 h incubation, cell viability was measured by WST-1 assay according to the manufacturer's instructions (Roche). […] The formazan absorbance, which correlates to the number of living cells, was measured at 450 nm and 630 nm as reference filter using a microplate reader. (Ultramark, Microplate Imaging System, Bio-Rad). The IC50 was calculated from the graph of the log of the compound concentration versus the fraction of the surviving cells.

[7] = test system: MDA-MB-231; experiment: Cell viability assay (WST-1); format: cell-based, human; conditions: Homo sapiens, MDA-MB-231, 48 h, read-out: IC50 (concentration yielding 50% growth inhibition)
Method: as §3, §4

[8] = test system: MCF-7; experiment: Cell cycle analysis by flow cytometry (propidium iodide); format: cell-based, human
Method: (§5) 5 μM concentrations were used for all drugs tested. The cells were exposed to the vehicle (DMSO) or […] of the CDK inhibitors for 24 hrs. The cell cycle distribution was then assessed using standard procedures.

[9] = test system: MDA-MB-231; experiment: as above; format: cell-based, human
Method: as §5

[10] = test system: MDA-MB-231 cells; experiment: Apoptotic signaling, Western blot of apoptosis related proteins; format: cell-based, human; conditions: MDA-MB-231, 10 μM, 48 hours
Method: In order to understand whether VMY-1-101 and VMY-1-103 compounds were able to induce apoptotic cell death, the expression of anti- and pro-apoptotic proteins in MDA-MB-231 cells following treatment with 10 μM drugs for 48 hours was evaluated first. […] This is further confirmed with proapoptotic 116 kDa poly (ADP-ribose) polymerase protein (PARP) into its 89-kDa fragments. […].
Western blotting was performed according to literature procedure. In brief, cell pellets were collected at the indicated times after treatment with compounds, suspended in 100 μL of lysis buffer (50 mM Tris-HCl, 150 mM NaCl, 1 mM EGTA, 1 mM EDTA, 20 mM NaF, 100 mM Na3VO4, 0.5% NP-40, 1% Triton X-100, 1 mM PMSF, 5 μg/ml aprotinin, 5 μg/ml leupeptin), vortexed twice and incubated in an ice bath for 30 min. Lysates were cleared by centrifugation at 12000 rpm for 15 min at 4° C. and protein was estimated by detergent compatible BCA protein assay kit (Pierce). Equivalent amounts of total proteins were resolved by SDS-PAGE (10%) and transferred to PVDF membrane. Membranes were blocked by 5% non-fat powdered milk in TBST overnight. Membranes were incubated with indicated primary antibodies for 2 hours followed by HRP-conjugated secondary antibodies for 1 hr and developed using enhanced chemiluminescence kit (Perkin Elmer).

T2 sequence (P06493 whole entry): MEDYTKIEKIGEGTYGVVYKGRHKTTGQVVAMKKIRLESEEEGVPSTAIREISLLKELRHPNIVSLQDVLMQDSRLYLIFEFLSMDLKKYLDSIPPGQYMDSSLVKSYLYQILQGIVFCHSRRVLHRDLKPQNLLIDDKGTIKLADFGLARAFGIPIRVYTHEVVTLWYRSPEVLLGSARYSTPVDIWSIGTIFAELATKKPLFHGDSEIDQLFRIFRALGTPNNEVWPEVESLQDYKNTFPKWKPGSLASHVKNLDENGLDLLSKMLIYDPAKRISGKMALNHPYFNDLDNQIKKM
T2 sequence (P14635 whole entry partner): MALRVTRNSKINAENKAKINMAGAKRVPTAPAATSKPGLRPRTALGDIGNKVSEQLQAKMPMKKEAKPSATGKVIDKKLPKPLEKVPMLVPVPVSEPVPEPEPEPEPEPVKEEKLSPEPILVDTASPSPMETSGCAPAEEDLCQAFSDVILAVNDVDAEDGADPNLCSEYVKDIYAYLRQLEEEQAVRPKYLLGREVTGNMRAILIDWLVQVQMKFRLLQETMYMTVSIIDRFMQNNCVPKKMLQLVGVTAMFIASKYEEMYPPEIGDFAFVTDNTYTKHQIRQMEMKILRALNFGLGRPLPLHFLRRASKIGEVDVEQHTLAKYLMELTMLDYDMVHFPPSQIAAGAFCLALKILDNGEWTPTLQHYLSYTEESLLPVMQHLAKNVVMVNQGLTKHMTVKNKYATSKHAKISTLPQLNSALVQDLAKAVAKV
T5 sequence (P50613 whole entry): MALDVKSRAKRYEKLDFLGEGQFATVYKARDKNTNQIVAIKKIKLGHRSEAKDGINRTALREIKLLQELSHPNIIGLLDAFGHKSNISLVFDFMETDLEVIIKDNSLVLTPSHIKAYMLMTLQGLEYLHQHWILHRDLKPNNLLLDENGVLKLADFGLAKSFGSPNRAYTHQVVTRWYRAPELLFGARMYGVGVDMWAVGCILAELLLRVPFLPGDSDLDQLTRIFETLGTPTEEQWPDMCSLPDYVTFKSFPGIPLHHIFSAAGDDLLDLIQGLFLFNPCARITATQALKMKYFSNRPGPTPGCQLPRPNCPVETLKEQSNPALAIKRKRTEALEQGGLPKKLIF
T5 sequence (P51946 whole entry partner): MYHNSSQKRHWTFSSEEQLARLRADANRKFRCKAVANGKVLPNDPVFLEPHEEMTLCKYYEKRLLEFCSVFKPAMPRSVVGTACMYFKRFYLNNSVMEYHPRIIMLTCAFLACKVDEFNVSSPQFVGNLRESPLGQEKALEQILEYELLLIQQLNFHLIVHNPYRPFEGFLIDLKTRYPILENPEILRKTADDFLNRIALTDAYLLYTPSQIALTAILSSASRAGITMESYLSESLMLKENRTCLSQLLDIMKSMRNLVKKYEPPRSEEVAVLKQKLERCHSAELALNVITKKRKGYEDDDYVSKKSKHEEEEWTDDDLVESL
T5 sequence (P51948 whole entry partner): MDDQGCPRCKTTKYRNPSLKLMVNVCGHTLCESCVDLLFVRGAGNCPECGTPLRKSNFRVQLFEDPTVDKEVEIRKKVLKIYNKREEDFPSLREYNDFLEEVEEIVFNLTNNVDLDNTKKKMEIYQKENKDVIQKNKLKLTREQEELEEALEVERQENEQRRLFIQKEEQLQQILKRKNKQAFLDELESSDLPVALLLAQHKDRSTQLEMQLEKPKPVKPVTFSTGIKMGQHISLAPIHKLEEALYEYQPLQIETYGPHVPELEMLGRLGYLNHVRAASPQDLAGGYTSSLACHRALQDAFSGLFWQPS

## CC[C@H](CO)Nc1nc(Nc2ccc(C(=O)NCCNS(=O)(=O)c3cccc4c(N(C)C)cccc34)c(Cl)c2)c2ncn(C(C)C)c2n1 [VMY-1-101, 2-Chloro-N-[2-(5-dimethylamino-naphthalene-1-sulfonylamino)-ethyl]-4-[2-(1-hydroxymethyl-propylamino)-9-isopropyl-9H-purin-6-ylamino]-benzamide]
[1]
  inhibition at 0.1 µM: 62%
[2]
  inhibition at 0.1 µM: 16 ± 3%
[3]
  inhibition at 0.1 µM: 87%
[4]
  inhibition at 0.1 µM: 40 ± 3%
[5]
  inhibition at 0.1 µM: 57%
[6]
  IC50: 19.1 ± 1.14 µM
[7]
  IC50: 4.86 ± 1.24 µM
[8]; MCF-7, 5, 10 μM, 24 hrs
  effect on cell cycle progression (G2/M phase): induced the cell cycle progression in G2/M phase
[8]; MCF-7, 24 hrs, 5 μM
  % G1: 63.56 ± 1.20%
  % S: 10.75 ± 0.88%
  % Sub-G1: 2.08 ± 0.19%
[9]; MDA-MB-231, 5, 10 μM, 24 hrs
  effect on cell cycle progression (G2/M phase): induced the cell cycle progression in G2/M phase
[9]; MDA-MB-231, 24 hrs, 5 μM
  % G1: 51.5 ± 0.50%
  % S: 25.05 ± 0.45%
  % Sub-G1: 2.01 ± 0.19%
[10]
  PARP cleavage: moderate cleavage of the 116-kDa full length PARP into an 89-kDa fragment
  protein level of full length caspase 3 and 7: decrease in protein level of full length caspase 3 and 7
